The values below come from patent US11447525B2 (NIIGATA UNIVERSITY, priority 2018, dated 2022).

Non-standard residues stand in square brackets, D forms with d. Residues, ends and D or L forms follow the SMILES beside them. No end group written: not given here. *: point of attachment. 5FAM = O=C1OC2(c3ccc(O)cc3Oc3cc(O)ccc32)c2ccc(C(=O)*)cc21; NMeR = CN[C@@H](CCCNC(=N)N)C(=O)O

The nature of this data set: Degradation test by human blood plasma, MALDI-TOFMS analysis. The format is in vitro ADME. The settings on record: for remaining at 10 min / remaining at 20 min / remaining at 0.5 h / remaining at 1 h / remaining at 2 h / remaining at 5 min: read-out: degradation resistance (proportion of the peptide retained without degradation). The protocol: Specifically, a peptide composed of the amino acid sequence represented by SEQ ID NO: 1 (hereafter sometimes referred to as “PCPP11”) was added to human blood plasma having a concentration of 50% by mass, the mixture was sampled immediately after starting the degradation test (after 0 minutes), and then after 5 minutes, after 10 minutes, after 20 minutes, after 30 minutes, after 60 minutes and after 120 minutes, and the samples were analyzed by MALDI-TOFMS (Matrix Assisted Laser Desorption/Ionization-Time Of Flight Mass Spectrometry). In Table 2, “UK” is an abbreviation for “unknown”. Further, the No. shown for each peptide in Table 2 corresponds with the numerical value recorded on the peaks of the graphs shown in FIG. 1.
Each of the peptides described above was added to human blood plasma having a concentration of 50% by mass, the resulting mixture was sampled immediately after starting the degradation test (after 0 minutes), and then after 5 minutes, after 10 minutes, after 20 minutes, after 30 minutes, after 60 minutes and after 120 minutes, and the samples were analyzed by MALDI-TOFMS. The results are shown in FIGS. 2 to 6 and Tables 4 to 6 shown below. Furthermore, the data for the degradation test by human blood plasma using PCPP11 from Reference Example 1 and the degradation tests by human blood plasma using each of the above peptides are collated in FIG. 7 and Table 7. The SEQ ID NO listed for the FAM-labeled peptide represents the SEQ ID NO of the peptide portion. Further, the No. shown for each peptide in Tables 4 to 6 corresponds with the numerical value recorded on the peaks of the graphs shown in FIGS. 2 to 6. In each table, in those cases where the numerical values are shown separated into an upper row and a lower row, the upper row value indicates the proportion (%) of peak area for two or more peptides relative to the total peak area in the MALDI-TOFMS analysis. On the other hand, the lower row value indicates the proportion (%) of each peptide when the peak area for the two or more peptides is deemed to be 100%. Moreover, for example, for the peptide No. 9 shown in Table 4, the left-side “70.0%” indicates the proportion (%) of the peptide No. 9 when the total peak area for the peptides No. 9 to 11 is deemed to be 100%, whereas the right-side “65%” indicates the proportion (%) of the peptide No. 9 relative to the total peak area in the MALDI-TOFMS analysis. This system is also used in the following tables.

Setting [1] is: 50% by mass human blood plasma, 5 min.
The mark [2] stands for this setting: 50% by mass human blood plasma, 10 min.
Where [3] appears, read: 50% by mass human blood plasma, 20 min.
The mark [4] stands for this setting: 50% by mass human blood plasma, 30 min.
[5] abbreviates: 50% by mass human blood plasma, 60 min.
Where [6] appears, read: 50% by mass human blood plasma, 120 min.
The mark [7] stands for this setting: 50% by mass human blood plasma, Start.
[8] abbreviates: LL peptide added to 50% by mass human blood plasma, 20 min.
The mark [9] stands for this setting: LL peptide added to 50% by mass human blood plasma, 60 min.
Setting [10] is: LL peptide added to 50% by mass human blood plasma, 120 min.

On to RRPTTWHKPGRRPTTWHKP [compound 9], for which the “degradation resistance (proportion of the peptide retained without degradation)” value under setting [1] worked out at 100% and the “degradation resistance (proportion of the peptide retained without degradation)” value under setting [7] was 100%. Moreover, under setting [2], the remaining at 10 min came to 84%. Moreover, under setting [3], the remaining at 20 min turned out to be 89%. The remaining at 0.5 h under setting [4] stood at 91%. The remaining at 1 h under setting [5] is 79%. Moreover, under setting [6], the remaining at 2 h was determined as 65%. The “proportion of peak area relative to the total peak area in the MALDI-TOFMS analysis” value is, setting by setting: (LL peptide added to 50% by mass human blood plasma, 5 min) 100%; under setting [8], 89%; under setting [9], 79%; under setting [10], 65%; (LL peptide added to 50% by mass human blood plasma, Start) 100%. Further, the “proportion of each peptide when the peak area for the two or more peptides is deemed to be 100%” value reads like this: under setting [8], 92.1%; (LL peptide added to 50% by mass human blood plasma, 30 min) “(92.1%)”; under setting [9], 82.1%; under setting [10], 70.0%.
In the case of `C[C@H](O)[C@@H](NC(=O)[C@@H](Cc1c[nH]c2ccccc12)NC(=O)[C@@H](Cc1c[nH]cn1)NC(=O)[C@@H](CCCCN)NC(=O)[C@H]1CCCN1C(=O)CNC(=O)[C@@H]1CCCN1C(=O)[C@H](CCCCN)NC(=O)[C@H](Cc1c[nH]cn1)NC(=O)[C@H](Cc1c[nH]c2ccccc12)NC(=O)[C@@H](NC(=O)[C@@H](NC(=O)[C@@H]1CCCN1C(=O)[C@H](CCCNC(=N)N)NC(=O)[C@@H](N)CCCNC(=N)N)[C@@H](C)O)[C@@H](C)O)C(=O)N[C@@H](C(=O)N1CCC[C@@H]1C(=O)N[C@H](CCCNC(=N)N)C(=O)N[C@H](CCCNC(=N)N)C(=O)O)[C@H](C)O` [No. 15] (H-RRPTTWHKPG[dP][dK][dH][dW][dT][dT][dP][dR][dR]-OH; N-terminus and C-terminus assumed), the “degradation resistance compared with the stand-alone PCPP11 and the FAM-PCPP11” value (50% by mass human blood plasma) is “superior degradation resistance”.
Regarding RRPTTWHKPGRRPTTWHKP [No. 9], the “degradation resistance compared with the stand-alone PCPP11 and the FAM-PCPP11” value (50% by mass human blood plasma) is “superior degradation resistance”.
Regarding RRPTTWHKPGRRPTTWHKPGRRPTTWHKP [No. 12], the “degradation resistance compared with the stand-alone PCPP11 and the FAM-PCPP11” value (50% by mass human blood plasma) was “superior degradation resistance”. Where the note is “50% by mass human blood plasma, within 120 minutes of starting the test”, the degradation products observed result is “no degradation products were observed”.
For `C[C@@H](O)[C@H](NC(=O)[C@@H](NC(=O)[C@@H]1CCCN1C(=O)[C@H](CCCNC(=N)N)NC(=O)[C@H](CCCNC(=N)N)NC(=O)c1ccc2c(c1)C(=O)OC21c2ccc(O)cc2Oc2cc(O)ccc21)[C@@H](C)O)C(=O)N[C@@H](Cc1c[nH]c2ccccc12)C(=O)N[C@@H](Cc1c[nH]cn1)C(=O)N[C@@H](CCCCN)C(=O)N1CCC[C@H]1C(=O)O` [compound 13] (5FAM-RRPTTWHKP-OH; C-terminus assumed), the remaining at 5 min under setting [1] came to 100%. Also, the remaining at 10 min under setting [2] came to 90%. The remaining at 20 min under setting [3] came out at 92%. For the same compound, the remaining at 0.5 h under setting [4] came to 87%. Also, the remaining at 1 h under setting [5] was 73%. For the same compound, the “degradation resistance (proportion of the peptide retained without degradation)” value under setting [7] is 100%. Also, the “proportion of peak area relative to the total peak area in the MALDI-TOFMS analysis” value (FAM-L peptide added to 50% by mass human blood plasma, 5 min) is recorded as 47.2%; the “proportion of peak area relative to the total peak area in the MALDI-TOFMS analysis” value (FAM-L peptide added to 50% by mass human blood plasma, 10 min) came out at 43.2%; the “proportion of peak area relative to the total peak area in the MALDI-TOFMS analysis” value (FAM-L peptide added to 50% by mass human blood plasma, 20 min) was determined as 45.6%; the “proportion of peak area relative to the total peak area in the MALDI-TOFMS analysis” value (FAM-L peptide added to 50% by mass human blood plasma, 30 min) is 43.6%; the “proportion of peak area relative to the total peak area in the MALDI-TOFMS analysis” value (FAM-L peptide added to 50% by mass human blood plasma, 60 min) is 37.4%; the “proportion of peak area relative to the total peak area in the MALDI-TOFMS analysis” value (FAM-L peptide added to 50% by mass human blood plasma, 120 min) is on record as 13.5%. In addition, under “FAM-L peptide added to 50% by mass human blood plasma, Start”, the “proportion of peak area relative to the total peak area in the MALDI-TOFMS analysis” value was 47.6%.
In the case of RRPTTWHKP [compound 1], the remaining at 5 min under setting [1] amounted to 93%. Moreover, the “degradation resistance (proportion of the peptide retained without degradation)” value under setting [7] is 100%.
`C[C@H](O)[C@@H](NC(=O)[C@@H](Cc1c[nH]c2ccccc12)NC(=O)[C@@H](Cc1c[nH]cn1)NC(=O)[C@@H](CCCCN)NC(=O)[C@H]1CCCN1C(=O)CNC(=O)[C@@H]1CCCN1C(=O)[C@H](CCCCN)NC(=O)[C@H](Cc1c[nH]cn1)NC(=O)[C@H](Cc1c[nH]c2ccccc12)NC(=O)[C@@H](NC(=O)[C@@H](NC(=O)[C@@H]1CCCN1C(=O)[C@H](CCCNC(=N)N)N(C)C(=O)[C@@H](N)CCCNC(=N)N)[C@@H](C)O)[C@@H](C)O)C(=O)N[C@@H](C(=O)N1CCC[C@@H]1C(=O)N[C@H](CCCNC(=N)N)C(=O)N[C@H](CCCNC(=N)N)C(=O)O)[C@H](C)O` [compound 19] (H-R[NMeR]PTTWHKPG[dP][dK][dH][dW][dT][dT][dP][dR][dR]-OH; N-terminus and C-terminus assumed): the remaining at 5 min under setting [1] was determined as 100%. Under setting [2], the remaining at 10 min came to 100%. Also, under setting [3], the remaining at 20 min was found to be 100%. For the same compound, the remaining at 0.5 h under setting [4] was 100%. Moreover, the remaining at 1 h under setting [5] worked out at 100%. Moreover, the remaining at 2 h under setting [6] is 100%. Further, under setting [7], the “degradation resistance (proportion of the peptide retained without degradation)” value worked out at 100%.
“RRPTTWHKPGRRPTTWHKPGRRPTTWHKP [Peptide 12]”: the remaining at 2 h under setting [6] amounted to 100%.
On to `C[C@@H](O)[C@H](NC(=O)[C@@H](NC(=O)[C@@H]1CCCN1C(=O)[C@H](CCCNC(=N)N)NC(=O)[C@H](CCCNC(=N)N)NC(=O)CNC(=O)[C@@H]1CCCN1C(=O)[C@H](CCCCN)NC(=O)[C@H](Cc1c[nH]cn1)NC(=O)[C@H](Cc1c[nH]c2ccccc12)NC(=O)[C@@H](NC(=O)[C@@H](NC(=O)[C@@H]1CCCN1C(=O)[C@H](CCCNC(=N)N)N(C)C(=O)[C@@H](N)CCCNC(=N)N)[C@@H](C)O)[C@@H](C)O)[C@@H](C)O)C(=O)N[C@@H](Cc1c[nH]c2ccccc12)C(=O)N[C@@H](Cc1c[nH]cn1)C(=O)N[C@@H](CCCCN)C(=O)N1CCC[C@H]1C(=O)O` [compound 18] (H-R[NMeR]PTTWHKPGRRPTTWHKP-OH; N-terminus and C-terminus assumed), for which the remaining at 5 min under setting [1] amounted to 100%. For the same compound, the remaining at 10 min under setting [2] came to 100%. For the same compound, the remaining at 20 min under setting [3] is 100%. Moreover, the remaining at 0.5 h under setting [4] amounted to 100%. For the same compound, the remaining at 1 h under setting [5] worked out at 100%. Besides, the remaining at 2 h under setting [6] turned out to be 100%. Besides, under setting [7], the “degradation resistance (proportion of the peptide retained without degradation)” value is 100%.
